Measured values reported in US20230364032A1, “USE OF 2-HOBA TO TREAT ATHEROSCLEROSIS” (Vanderbilt University, priority 2020, published 2023).
Entries after “also recorded” stand apart in the source; their conditions may differ.

Experiments:
[1] = system: F2-IsoP; assay: Urine F2-isoprostane levels (LC/MS/MS); type: in vivo, mouse; conditions: Ldlr−/− mice, western diet 16 weeks, 1 g/L; vehicle, 4-HOBA, 2-HOBA compared
Protocol: The urine F2-IsoP levels were measured by LC/MS/MS) from Ldlr^−/− mice consuming a western diet for 16 weeks and treated with 1 g/L 2-HOBA, 4-HOBA, or vehicle. N=5 or 6 per group, p=0.43, Kruskal-Wallis test. Urinary creatinine levels were measured for normalization.

[2] = 2-HOBA and 4-HOBA levels in plasma and tissues of C57BL/6J mice after intraperitoneal injection (LC/MS); type: in vivo, mouse; conditions: for liver, spleen, and kidney levels of 2-HOBA versus 4-HOBA: 30 min after intraperitoneal injection
Protocol: FIG. 12A-12D show the levels of 2-HOBA or 4-HOBA in plasma and tissues from C57BL/6J mice. A. Plasma samples were collected from female C57BL/6J mice on a chow diet after intraperitoneal injection of 1 mg 2-HOBA (n=3) or 1 mg 4-HOBA (n=3). *p<0.01, Student t test. B-D. Levels of 2-HOBA and 4-HOBA in liver (B), spleen (C), and kidney (D) of WT mice 30 min after intraperitoneal injection. (Mean±SEM shown for each, N.S. Student t test). The levels of 2-HOBA or 4-HOBA were measured in the plasma and tissues using LC/MS as described in the Methods.
(§1) Measurement of 2-HOBA and 4-HOBA was performed by LC/MS after derivatization with phenylisothiocyanate (PITC), and using [^2H4]-2-HOBA as an internal standard as previously described for 2-HOBA^71 (See FIG. 23). For these assays, the Waters Xevo-TQ-Smicro triple quadrupole mass spectrometer operating in positive ion multiple reaction monitoring (MRM) mode monitored the following transitions: for PITC-2-HOBA or PITC-4-HOBA, m/z 259→107@20 eV (quantifier transition) and m/z 259→153 @20 eV (qualifier transition); for PITC-[^2H4]2-HOBA m/z 263 →107@20 eV (quantifier transition), m/z 263→111 @20 eV (qualifier transition). Abundance for PITC-2-HOBA was calculated based on the ratio of peak area versus that of PITC-[^2H4]2-HOBA. Because the transition reactions for PITC-4-HOBA are less efficient than for PITC-2-HOBA, the ratio of peak areas for PITC-4-HOBA/PITC-[^2l H4]2-HOBA was multiplied by the correction factors 3.9 and 5.7 when using the m/z 107 and m/z 153 transition, respectively (See FIG. 24).

[3] = 2-HOBA and 4-HOBA levels in plasma and tissues of Ldlr−/− mice (LC/MS); type: in vivo; conditions: for concentration at 16 weeks: Ldlr−/− on C57BL/6 background, mouse, plasma, oral, 1 g/L in drinking water, male Ldlr−/− mice after 16 weeks of treatment with 1 g/L of water; for levels in the aorta and heart / plasma levels of 2-HOBA versus 4-HOBA: male Ldlr−/− mice; for levels in the aorta and heart: 30 min after oral gavage; for plasma levels of 2-HOBA versus 4-HOBA: 30 min after oral gavage of 5 mg
Protocol: FIG. 11A-11C show the concentration of 2-HOBA or 4-HOBA was measured in plasma and tissues from Ldlr^−/− mice. A. Eight week old male Ldlr^−/− mice were fed WD for 16 weeks and were continuously treated with water containing either 2-HOBA (n=9) or 4-HOBA (n=6). Plasma was collected 30 min after oral gavage of mice with either 2-HOBA or 4-HOBA (5 mg each mouse). (Mean±SEM shown for each, p=0.388 Mann-Whitney Test.) B-C. Levels of HOBA were measured in the aorta and heart of male Ldlr^−/− mice consuming a chow diet 30 min after oral gavage of 2-HOBA or 4-HOBA (5 mg each mouse). (Mean±SEM shown for each, N.S. Student t test). The levels of 2-HOBA or 4-HOBA were measured in the plasma and tissues using LC/MS as described in the Methods.
Ldlr^−/− and WT on C57BL/6 background mice were obtained from the Jackson Laboratory. Animal protocols were performed according to the regulations of Vanderbilt University's Institutional Animal Care and Usage Committee. Mice were maintained on chow or a Western-type diet containing 21% milk fat and 0.15% cholesterol (Teklad). Eight week old, female Ldlr^−/− mice on a chow diet were pretreated with vehicle alone (Water) or containing either 1 g/L of 4-HOBA or 1 g/L of 2-HOBA. 4-HOBA (as hydrochloride salt) was synthesized as previously described^21. 2-HOBA (as the acetate salt, CAS 1206675-01-5) was manufactured by TSI Co., Ltd. (Missoula, MT) and obtained from Metabolic Technologies, Inc., Ames, IA^24. A commercial production lot was used (Lot 16120312), and the purity of the commercial lot was verified to be >99% via HPLC and NMR spectroscopy^24. After two weeks, the mice continued to receive these treatments but were switched to a western diet for 16 weeks to induce hypercholesterolemia and atherosclerosis. Similarly, 12 week-old male Ldlr^−/− mice were pretreated with vehicle alone (water) or containing 1 g/L of 2-HOBA for two weeks and were then switched to a western diet for 16 weeks to induce hypercholesterolemia and atherosclerosis, while continuing the treatment with 2-HOBA or water alone^58, 59, 60 Based on the average weight and daily consumption of water per mouse the estimated daily dosage with 1 g/L of 2-HOBA is 200 mg/Kg. […] Eight week old, male Ldlr^−/− mice were fed a western diet for 16 weeks and were continuously treated with water containing either 2-HOBA or 4-HOBA. Urine samples were collected using metabolic cages (2 mice in one cage) during 18 h after oral gavage with either 2-HOBA or 4-HOBA (5 mg each mouse).
as §1

## NCc1ccccc1O [2-HOBA, 2-hydroxybenzylamine]
[1]
  urine F2-IsoP levels: not significantly different; also recorded: does not impact
[2]
  liver, spleen, and kidney levels of 2-HOBA versus 4-HOBA: not significantly different
[3]
  concentration at 16 weeks: 469 ± 38 ng/mL
  levels in the aorta and heart: similar
  plasma levels of 2-HOBA versus 4-HOBA: not significantly different

## NCc1ccc(O)cc1 [4-HOBA, 4-hydroxybenzylamine, reference compound]
[1]
  urine F2-IsoP levels: not different
[2]
  liver, spleen, and kidney levels of 2-HOBA versus 4-HOBA: not significantly different
[2]; after intraperitoneal injection
  clearance, 4-HOBA vs 2-HOBA: more rapid clearance; also recorded: cleared more rapidly
[2]; female C57BL/6J mice, 1 mg i.p.
  plasma levels after intraperitoneal injection, 4-HOBA vs 2-HOBA: slightly higher initially
[3]
  concentration at 16 weeks: 25 ± 3 ng/mL
  levels in the aorta and heart: similar
  plasma levels of 2-HOBA versus 4-HOBA: not significantly different
